Test results as given in patent US10681912B2, “Dispersion solution containing antibacterial ultrafine metal particles and method of producing the same” (TOYO SEIKAN GROUP HOLDINGS, LTD., priority 2013, dated 2020).

Assay: SP values (solubility parameter)
Type: physicochemical
Details: δ=(E/V)^1/2
Description: The SP value has the same meaning as the solubility parameter, and serves as a rough indication of mixing property between the liquids. If the cohesive energy is denoted by E and the molar volume by V, then the SP value δ is given by δ=(E/V)^1/2.

SP Value: 8.7
Compound: CC(=O)CC(C)C [Methylisobutyl ketone]
